Several values for one entry are separate records, joined by “and”; a condition that tells them apart may be missing. Equal entries are not always repeated. Entries after “also recorded” stand apart in the source; their conditions may differ.
What was measured:
[1] = tested on: thromboxane-B2; assay: Thromboxane (thromboxane-B2) blood levels after topical aspirin, Example 1; format: in vivo, human
Protocol: (§1) Five healthy adult volunteers (3 male, 2 female) were studied. Each refrained from ingesting oral aspirin for two weeks prior to study. Prior to treatment in accordance with the present invention, baseline thromboxane levels and hemoccults were obtained.
Thromboxane levels were measured by assaying for blood levels of thromboxane-B2 in accordance with the method described in Braden et al., Circulation 82:178 (1990). Thromboxane levels can also be measured in either blood or urine according to known methods which include those without limitation disclosed in the following references: Hirsh et al., supra; Robertson et al., N. Engl. J. Med. 304:998 (1981); Pedersen et al., N. Engl. J. Med. 311:1206 (1984); Patrignani et al., J. Clin. Invest. 69:1366 (1982); Preston et al., 304:76 (1981); Hirsh et al., N. Engl. J. Med. 304:685 (1981).
A preparation of aspirin in isopropyl alcohol and propylene glycol was prepared by mixing "Aspirsol"™ topical aspirin (NDC54102-001-01; commercially available from TERRI Pharmaceuticals, Inc., PO Box 6454, Kingwood, Tex. 77325) in accordance with the package instructions except that 8 ml instead of 10 ml of the suspending solution was used. The resulting solution contained approximately 9% aspirin rather than the 7-8% indicated on the package label.
(§2) After base levels of thromboxane had been measured, the aspirin solution was first applied on the morning of Day 1 to the skin of the human subjects within an hour of mixing by rubbing the aspirin solution on the arms and/or chest of the subject. The application was repeated with freshly prepared solution for each of four additional mornings (Days 2-5) in the same manner. Between applications the subjects followed their normal schedule of bathing and showering. Eight hours after the fifth application (on Day 5) blood was drawn for salicylate levels and thromboxane levels to be determined. With one subject, blood was drawn for TXA2 levels every day just before application of a new aspirin solution (i.e., approximately 24 hours after application of the previous aspirin solution). Hemoccults were also tested.
Two of the subjects continued daily application for another five days (total ten days). For Days 6 and 7, aspirin solutions freshly prepared as described above were used. Beginning with Day 8, a different aspirin preparation was used. This second preparation was prepared by crushing aspirin tablets containing approximately 975 mg aspirin to form a powder. The powder was then formed into a paste with approximately 2 ml of distilled water. This paste was then mixed with 4 ml propylene glycol and 4 ml ethanol to produce approximately 10 ml of a cloudy solution. This cloudy solution was then filtered to remove excipients and other insoluble material found in the crushed aspirin tablets. After filtering, approximately 10 ml of a clear solution was obtained which contained approximately 9% aspirin. 8 ml of the resulting solution was used in each application. This second solution was applied to the two continuing subjects as previously described. Salicylate and thromboxane levels were checked after the tenth day.

[2] = Hemoccults, gastrointestinal symptoms and side effects, Example 1; format: in vivo, human; conditions: 5 volunteers, topical aspirin
Source text: as §1, §2

[3] = tested on: PGI2 biosynthesis; assay: Urinary 2,3-dinor-6-keto-PGF1a (PGI-M) excretion, dermal aspirin, Example 2; format: in vivo, human; conditions: for Urinary PGI-M excretion, peak decrease (day 4): p=0.074 by ANOVA (not significant)
Protocol: Only healthy male and female volunteers were studied. The subjects were asked to avoid aspirin and any other cyclooxygenase inhibitors for the 10 days before and throughout the period of investigation. Aspirin (acetyl salicylic acid, USP) powder was dissolved in propylene glycol and either isopropyl alcohol or ethanol (1.7:1 v/v) to a final concentration of 94 mg/ml. […] The aspirin preparation was made daily immediately prior to its application Volunteers attended the clinic where the preparation was applied and were asked not to wash the area for at least 12 hours. The aspirin solution was applied to the forearm and upper arm over a 15 min interval. Volunteers received aspirin 250 mg (n=4), aspirin 750 mg (n=6) or vehicle (n=6) for 10 days and were followed for 8 days following drug withdrawal. The volunteers were aged 31-56 years, with equal numbers of male and females in each treatment group.
Blood without anticoagulant was obtained for serum TXB2, the stable metabolite of TXA2, prior to and at intervals during and following aspirin administration. The blood was allowed to clot in glass at 37° C. for 60 min and the serum removed and stored at -20° C. until analyzed. Urine was collected over 24 hours at corresponding times for measurement of 2,3-dinor-TXB2 (TX-M) and 2,3-dinor-6-keto-PGF1a (PGI-M), major enzymatic metabolites of TXA2 and PGI2, respectively [Lawson et al., Analyt. Biochem. 150:463 (1985); FitzGerald et al., N. Engl. J. Med. 310: 1065 (1984)]. Excretion of these products is an index of the in vivo formation of their parent compounds [FitzGerald et al., supra; Reilly and Fitzgerald, Blood 69: 180 (1987)]. Serum TXB2 and urinary metabolites were determined by negative ion-chemical ionization, gas chromatography-mass spectrometry (NICI-GCMS) using authentic deuterated standards, as previously described [Braden et al., supra].

[4] = tested on: TX-M excretion (TXA2 biosynthesis); assay: Urinary TX-M excretion before and after dermal or oral aspirin, Example 3; format: in vivo, human; design: TX-M post ASA: unit not given beside the values
Protocol: In an additional 4 subjects, we examined the increase in PGI2 formation in response to intravenous bradykinin prior to and following oral aspirin 75 mg or dermal aspirin 750 mg daily for 14 days. The protocol for bradykinin has been described previously [Clark, N.Engl.J.Med 325:1137 (1991)]. Volunteers were admitted after an overnight fast to the Clinical Research Center. Blood samples were obtained for serum TXB2 and the subject asked to void. Through a peripheral vein, 1 liter of normal saline was infused over 1 hour. After a further hour, bradykinin was infused in incremental doses of 100-800 ng/kg/min, each over 15 mm. The infusion was continued at the maximum tolerated dose for a total period of 2 hr. Blood pressure and heart rate were monitored continuously. Urine was collected in separate 2 hr aliquots prior to, during and following the bradykinin infusion.
^1 The excretion of TXM and PGIM before and following dermal aspirin
750 mg/day or oral aspirin 75 mg/day for 10 days. Urine samples were
collected over 2 hr before (rest) and following the administration of […]

[5] = tested on: skin; assay: Skin reactions and histology after dermal aspirin; format: in vivo, human
[6] = tested on: PGI2 synthesis; conditions: cited from earlier work
[7] = Subject 1, baseline 401, about 24 h after previous application
[8] = highest dose of dermal aspirin (750 mg/day)

Compound: CC(=O)Oc1ccccc1C(=O)O [aspirin, acetyl salicylic acid]
- Decrease in thromboxane levels after five daily applications ([1]; Day 5, subject 3 not considered): at least 50%
- Thromboxane level, Day 3 [1, 7]: 250 ng/cc
- Thromboxane level, Day 4 [1, 7]: 199 ng/cc
- Thromboxane level, Day 5, prior to the Day 5 dose ([1]; Subject 1, baseline 401, morning of Day 5): 105 ng/cc
- Thromboxane level, Day 2 ([1]; Subject 1, baseline 401, topical aspirin ~9% solution daily, about 24 h after previous application): 311 ng/cc
- Thromboxane level, Day 10 ([1]; two subjects continuing to ten daily applications, subject 1 baseline 401, subject 2 baseline 372): 18 ng/cc and 12 ng/cc
- Suppression of thromboxane levels by Day 10 ([1]; two subjects, ten daily applications): 95% and 97%
- Gastrointestinal symptoms or other side effects [2]: No gastrointestinal symptoms or other side effects were noted or reported
- Hemoccults [2]: negative
- PGI2 biosynthesis based on urinary PGI-M ([3]; dermal aspirin): little inhibition of basal or stimulated PGI2 formation; also recorded: only a small fall in PGI2 biosynthesis
- Urinary PGI-M excretion, peak decrease (day 4) ([3]; dermal aspirin 250 mg/day, baseline 402±139 pg/mg creatinine): 84±4 % of baseline
- Urinary PGI-M excretion, peak decrease (day 4) ([3]; dermal aspirin 750 mg/day, baseline 248±73 pg/mg creatinine): 76±7 % of baseline
- Decrease in basal PGI-M excretion by day 4 [3, 8]: 24%
- PGI-M excretion by day 10 [3, 8]: 83 % of baseline
- TX-M post ASA ([4]; Dermal aspirin 750 mg/day, PT 1, pre ASA 220): 46
- TX-M post ASA ([4]; Dermal aspirin 750 mg/day, PT 2, pre ASA 121): 29
- TX-M post ASA ([4]; Oral aspirin 75 mg/day, PT 1, pre ASA 136): 26
- TX-M post ASA ([4]; Oral aspirin 75 mg/day, PT 2, pre ASA 111): 43
- Urinary TX-M ([4]; dermal aspirin 750 mg/day): marked fall in urinary TX-M; also recorded: suppressed TXM
- Urinary TX-M ([4]; oral aspirin 75 mg/day): marked fall in urinary TX-M
- Subjects with skin reactions, including erythema and peeling ([5]; dermal aspirin): 30 % of subjects
- Skin reactions with alternate day application ([5]; dermal, alternate day, up to 8 weeks): without reactions for up to 8 weeks
- Skin histology ([5]; one subject, 10 days, 250 mg/day): no histological changes
- Inhibition of PGI2 synthesis, arterial and venous tissue ([6]; 20 mg/day for 1 week, atherosclerotic patients): 50%
- Urinary PGI2 metabolites / prostacyclin biosynthesis ([6]; approximately 40 mg/day): no significant effect on prostacyclin biosynthesis
- Reduction of PGI2 synthesis, arterial and venous tissue ([6]; equally low doses (about 40 mg/day)): 50%
- Bradykinin-stimulated PGI2 formation ([6]; oral aspirin 75 mg/day): abolished

— patent US6071896A, “Suppression of thromboxane levels by percutaneous administration of aspirin” (Gundersen Clinic, Ltd., priority 1998, dated 2000)
